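Cells were grown in 96-well plates and exposed to each compound for 48 hours at five concentrations; endpoints were interpolated linearly between bracketing concentrations, or set to the highest concentration if not reached. TGI marks complete inhibition of growth.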

Among the test systems are 786-0 renal; BT-549 breast; COLO 205 colon; DU-145 prostate; HCC-2998 colon; MDA-MB-231 breast; NCI-H460 lung; RPMI-8226 leukemia; RXF 393 renal; SK-OV-3 ovarian; U251 CNS.
Holding throughout (assay): DTP human tumour cell line panel, 48 h

`CC(=O)N(C(C)=O)c1ncc(-n2nc(-c3ccccc3)cc2-c2ccccc2)c(-c2ccccc2)n1`: the TGI in the test with 786-0 renal, in the test with BT-549 breast, in the test on COLO 205 colon, with DU-145 prostate, in the test with HCC-2998 colon and with MDA-MB-231 breast was above 10 µM throughout. The total growth inhibition concentration (TGI) in the test with NCI-H460 lung, with RPMI-8226 leukemia, in the test on RXF 393 renal, in the test on SK-OV-3 ovarian and with U251 CNS was above 10 µM in each case.
Regarding `O=C(Nc1ccccc1)c1cc(S(=O)(=O)NC2=NC(c3ccccc3)c3cc(Cl)ccc3N2)c(SSc2cc(Cl)c(C(=O)Nc3ccccc3)cc2S(=O)(=O)NC2=NC(c3ccccc3)c3cc(Cl)ccc3N2)cc1Cl` (stereo not given), the total growth inhibition concentration (TGI) with 786-0 renal was above 100 µM; in the test with BT-549 breast it was above 100 µM; in the test on COLO 205 colon, above 100 µM; in the test with DU-145 prostate, above 100 µM; in the test with HCC-2998 colon, above 100 µM; in the test on MDA-MB-231 breast it was above 83.6 µM. Besides, the TGI in the test on NCI-H460 lung, in the test on RPMI-8226 leukemia, in the test with RXF 393 renal, in the test with SK-OV-3 ovarian and with U251 CNS was above 100 µM in each case.
For `CCn1c(-c2ccccc2)cs/c1=N\C(P(=O)(O)O)P(=O)(O)O`, the TGI in the test on 786-0 renal, with BT-549 breast, with COLO 205 colon, with DU-145 prostate, in the test on HCC-2998 colon and with MDA-MB-231 breast was above 100 µM in each case. In addition, the TGI with NCI-H460 lung, in the test on RPMI-8226 leukemia, in the test on RXF 393 renal, in the test with SK-OV-3 ovarian and in the test on U251 CNS was above 100 µM each time.
As for `Cc1n(Cc2ccccc2)c2c([n+]1C)C(=O)c1ccccc1C2=O`, the concentration for total growth inhibition (TGI) with 786-0 renal was determined as 0.877 µM; with BT-549 breast, 0.234 µM; in the test on COLO 205 colon it was 0.0794 µM; in the test with DU-145 prostate it was 0.32 µM; in the test with HCC-2998 colon, 1.45 µM; in the test on MDA-MB-231 breast, 0.299 µM. Moreover, the total growth inhibition concentration (TGI) in the test with NCI-H460 lung was determined as 0.5 µM; in the test on RPMI-8226 leukemia it was 39.1 µM; in the test on RXF 393 renal, 2.42 µM; in the test on SK-OV-3 ovarian it was 1.65 µM; in the test with U251 CNS, 0.131 µM.
Take `CC1(C)OC(C(=O)Nc2cc3c4ccccc4ccc3c3ccccc23)C(C(=O)N2CCCCC2)O1` (stereo not given): the TGI with 786-0 renal, in the test on BT-549 breast, in the test with COLO 205 colon, with DU-145 prostate, in the test on HCC-2998 colon and in the test with MDA-MB-231 breast was above 100 µM throughout. For the same compound, the TGI in the test with NCI-H460 lung is 27.7 µM; with RPMI-8226 leukemia it was above 43.2 µM; in the test on RXF 393 renal it was above 27.7 µM; in the test with SK-OV-3 ovarian it was above 100 µM; with U251 CNS, above 100 µM.
Turning to `COc1cccc(C2c3cc4c(cc3OC(N3CCCCC3)C2C)OCO4)c1O` (stereo not given), the TGI was 26.2 µM in the test on 786-0 renal; 54.9 µM with BT-549 breast; 25.5 µM in the test with COLO 205 colon; 96.9 µM with DU-145 prostate; 25.6 µM in the test with HCC-2998 colon; above 56.7 µM in the test with MDA-MB-231 breast. Also, the concentration for total growth inhibition (TGI) was 24.4 µM with NCI-H460 lung; 12.3 µM in the test on RPMI-8226 leukemia; 18.7 µM in the test on RXF 393 renal; above 79.1 µM with SK-OV-3 ovarian; 16.2 µM in the test with U251 CNS.
`COC(=O)c1ccc(/C=C/c2cc(O)ccc2O)cc1`: the TGI in the test with 786-0 renal is 16.9 µM; in the test on BT-549 breast, 3.49 µM; in the test on COLO 205 colon it was 22.8 µM; with DU-145 prostate, above 100 µM; with HCC-2998 colon, above 59.6 µM; in the test with MDA-MB-231 breast, 24 µM. In addition, the TGI in the test on NCI-H460 lung came out at 25.9 µM; in the test with RPMI-8226 leukemia, 4.14 µM; in the test on RXF 393 renal it was 6.59 µM; in the test with U251 CNS, 8.44 µM.
As to `Cc1c(O)ccc2c(O)c(NC(=O)c3ccc4c(c3)CCC(C)(C)O4)c(=O)oc12`, the concentration for total growth inhibition (TGI) with 786-0 renal, in the test on BT-549 breast, with COLO 205 colon, in the test with DU-145 prostate, with HCC-2998 colon and with MDA-MB-231 breast was above 100 µM throughout. For the same compound, the TGI in the test with NCI-H460 lung, in the test with RPMI-8226 leukemia, with RXF 393 renal, with SK-OV-3 ovarian and with U251 CNS was above 100 µM in each case.
`Cc1c(C)c2c(c(N)c1C#N)C(=O)N(NC(=O)c1ccccc1)C2=O`: the TGI in the test on 786-0 renal, with BT-549 breast, with COLO 205 colon, in the test on DU-145 prostate, with HCC-2998 colon and in the test with MDA-MB-231 breast was above 100 µM throughout. The TGI with NCI-H460 lung, in the test on RPMI-8226 leukemia, in the test with RXF 393 renal and with U251 CNS was above 100 µM throughout.
For `CN=C(n1ccnc1)n1ccnc1`, the TGI in the test with 786-0 renal, in the test on BT-549 breast, with COLO 205 colon, in the test with DU-145 prostate, with HCC-2998 colon and in the test with MDA-MB-231 breast was above 100 µM in each case. For the same compound, the TGI with NCI-H460 lung, with RPMI-8226 leukemia, in the test on RXF 393 renal, with SK-OV-3 ovarian and with U251 CNS was above 100 µM in each case.
`COC(=O)C1=C(C(=O)OC)N(c2ccc(OC)cc2[N+](=O)[O-])C(c2ccc(C)cc2)=CC1c1ccc(OC)cc1OC` (stereo not given): the TGI in the test on 786-0 renal is above 94 µM; with BT-549 breast it was above 100 µM; with COLO 205 colon, 20.8 µM; with DU-145 prostate, above 100 µM; in the test with HCC-2998 colon, 30.6 µM; in the test with MDA-MB-231 breast, above 74 µM. The TGI in the test on NCI-H460 lung stood at 98.7 µM; in the test with RPMI-8226 leukemia, 6.07 µM; with RXF 393 renal, 50 µM; in the test with SK-OV-3 ovarian it was 73.3 µM; in the test with U251 CNS it was 34.8 µM.
Regarding `COc1cc(Nc2nc3ccccc3nc2C(=O)O)cc(OC)c1OC`, the TGI in the test with 786-0 renal, in the test on BT-549 breast, in the test with COLO 205 colon, in the test on DU-145 prostate, in the test with HCC-2998 colon and with MDA-MB-231 breast was above 100 µM each time. In addition, the TGI in the test with NCI-H460 lung, in the test with RPMI-8226 leukemia, with RXF 393 renal, in the test with SK-OV-3 ovarian and in the test on U251 CNS was above 100 µM each time.

The values above are taken from PubChem BioAssay (NCI).
